Target: T1, HCV serine protease (Hepatitis C virus genotype 1a, UniProt P27958)
T1 construct: Spectrophotometric assay for the HCV serine protease
Test: Spectrophotometric assay for HCV protease inhibitory activity
Format: biochemical
Conditions: procedure of WO 02/08244
Protocol: Assay for HCV Protease Inhibitory Activity: Spectrophotometric Assay: Spectrophotometric assay for the HCV serine protease was performed on the inventive compounds by following the procedure described in PCT Publication No. WO 02/08244 published Jan. 31, 2002. The activity of the compounds in Table 1 is shown in the same Table.

T1 sequence (P27958 1027-1657): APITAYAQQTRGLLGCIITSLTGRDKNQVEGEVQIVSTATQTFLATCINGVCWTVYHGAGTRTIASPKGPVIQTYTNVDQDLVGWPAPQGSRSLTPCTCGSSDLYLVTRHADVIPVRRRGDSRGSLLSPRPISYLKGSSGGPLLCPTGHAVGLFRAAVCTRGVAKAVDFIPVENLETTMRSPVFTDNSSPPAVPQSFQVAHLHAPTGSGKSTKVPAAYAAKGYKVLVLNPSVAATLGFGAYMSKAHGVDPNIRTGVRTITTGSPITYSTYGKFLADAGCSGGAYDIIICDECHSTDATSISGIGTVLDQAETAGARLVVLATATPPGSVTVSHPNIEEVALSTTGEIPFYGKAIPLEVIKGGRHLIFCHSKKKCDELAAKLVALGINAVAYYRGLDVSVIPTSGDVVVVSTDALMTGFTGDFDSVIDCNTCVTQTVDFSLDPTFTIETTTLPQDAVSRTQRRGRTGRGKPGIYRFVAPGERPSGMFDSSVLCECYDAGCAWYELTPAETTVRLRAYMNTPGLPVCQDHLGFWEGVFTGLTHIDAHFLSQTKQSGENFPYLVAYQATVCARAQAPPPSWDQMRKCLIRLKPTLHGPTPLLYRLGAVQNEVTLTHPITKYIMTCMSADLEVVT
T1 sequence (P27958 1658-1711): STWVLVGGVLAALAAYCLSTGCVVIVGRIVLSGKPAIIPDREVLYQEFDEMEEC

Activity (binding activity), A (Binding activity A: <5 μM):
CC(C)(C)OC(=O)N[C@H](C(=O)N1CC2C([C@H]1C(=O)NC(CC1CCC1)C(=O)C(=O)N1CCC1)C2(C)C)C1CCCCC1 (stereo partly shown) [Entry 1]
CC(C)(C)OC(=O)N[C@H](C(=O)N1CC2C([C@H]1C(=O)NC(CC1CCC1)C(=O)C(=O)N1CC[C@H]1C(=O)OCc1ccccc1)C2(C)C)C1CCCCC1 (stereo partly shown) [Entry 4]
CC(C)(C)OC(=O)N[C@H](C(=O)N1CC2C([C@H]1C(=O)NC(CC1CCC1)C(=O)C(=O)N1CC[C@H]1C(=O)O)C2(C)C)C1CCCCC1 (stereo partly shown) [Entry 3]
COC(=O)[C@@H]1CCN1C(=O)C(=O)C(CC1CCC1)NC(=O)[C@@H]1C2C(CN1C(=O)[C@@H](NC(=O)OC(C)(C)C)C1CCCCC1)C2(C)C (stereo partly shown) [Entry 2]

Source: patent publication US6894072B2, “Compounds as NS3-serine protease inhibitors of hepatitis C virus” (Schering Corporation, priority 2002, dated 2005)
